According to ChEMBL document CHEMBL5532665 (J Med Chem, 2024):
The source made the active and inactive calls. The calls are words filed in the database; no cut-off is given here.

What was measured:
Mus musculus [1] = experiment: Antinociceptive activity in Kunming mouse model assessed as latency of tail withdrawal at 15007 nmol/kg, sc measured for 30 mins by tail-flick test relative to control; type: functional; settings: 0.5 h
Mus musculus [2] = experiment: Antinociceptive activity in Kunming mouse model assessed as latency of tail withdrawal at 15007 nmol/kg, sc measured for 120 mins by tail-flick test relative to control; type: functional; settings: 2 h
Mus musculus [3] = experiment: Antinociceptive activity in Kunming mouse model assessed as latency of tail withdrawal at 15007 nmol/kg, sc measured for 10 mins by tail-flick test relative to control; type: functional
Mus musculus [4] = experiment: Antinociceptive activity in Kunming mouse model assessed as latency of tail withdrawal at 15007 nmol/kg, sc measured for 60 mins by tail-flick test relative to control; type: functional; settings: 1 h
Mus musculus [5] = experiment: Antinociceptive activity in Kunming mouse model assessed as latency of tail withdrawal at 138.9 nmol/kg, sc measured for 10 mins by tail-flick test relative to control; type: functional
Mus musculus [6] = experiment: Antinociceptive activity in Kunming mouse model assessed as latency of tail withdrawal at 138.9 nmol/kg, sc measured for 30 mins by tail-flick test relative to control; type: functional; settings: 0.5 h
Mus musculus [7] = experiment: Antinociceptive activity in Kunming mouse model assessed as latency of tail withdrawal at 138.9 nmol/kg, sc measured for 120 mins by tail-flick test relative to control; type: functional; settings: 2 h
Mus musculus [8] = experiment: Antinociceptive activity in Kunming mouse model assessed as latency of tail withdrawal at 138.9 nmol/kg, sc measured for 60 mins by tail-flick test relative to control; type: functional; settings: 1 h
[9] = target: T1, Kappa-type opioid receptor (Homo sapiens, UniProt P41145); experiment: Agonist activity at human KOR expressed in CHO-K1 cells co-expressing G-alpha15 by calcium mobilization assay; type: functional, cell-based; settings: cho-k1
T1 sequence (P41145 whole entry): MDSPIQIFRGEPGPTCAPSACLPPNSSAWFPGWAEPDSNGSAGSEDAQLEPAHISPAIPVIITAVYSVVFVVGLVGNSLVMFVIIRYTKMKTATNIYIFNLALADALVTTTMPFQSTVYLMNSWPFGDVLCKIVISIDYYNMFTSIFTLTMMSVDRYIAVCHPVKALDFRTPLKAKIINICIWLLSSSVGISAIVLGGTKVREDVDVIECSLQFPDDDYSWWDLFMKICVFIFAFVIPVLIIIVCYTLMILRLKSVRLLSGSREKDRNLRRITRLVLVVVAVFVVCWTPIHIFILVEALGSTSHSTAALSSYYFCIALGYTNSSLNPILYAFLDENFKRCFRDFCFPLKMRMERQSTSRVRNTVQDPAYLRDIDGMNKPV

[10] = target: T2, Delta-type opioid receptor (Homo sapiens, UniProt P41143); experiment: Agonist activity at human DOR expressed in CHO-K1 cells co-expressing G-alpha15 by calcium mobilization assay; type: functional, cell-based
T2 sequence (P41143 whole entry): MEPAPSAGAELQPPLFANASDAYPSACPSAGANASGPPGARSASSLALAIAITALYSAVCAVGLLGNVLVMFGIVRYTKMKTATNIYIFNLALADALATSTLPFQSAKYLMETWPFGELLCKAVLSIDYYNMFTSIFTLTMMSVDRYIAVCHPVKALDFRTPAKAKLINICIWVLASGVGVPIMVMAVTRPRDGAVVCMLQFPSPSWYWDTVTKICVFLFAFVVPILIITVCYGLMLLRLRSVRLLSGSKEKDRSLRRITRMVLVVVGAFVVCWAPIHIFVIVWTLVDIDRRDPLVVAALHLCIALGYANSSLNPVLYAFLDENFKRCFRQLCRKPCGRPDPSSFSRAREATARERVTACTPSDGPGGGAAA

[11] = target: T1, Kappa-type opioid receptor; experiment: Agonist activity at human KOR expressed in CHO-K1 cells co-expressing G-alpha15 by calcium mobilization assay relative to control; type: functional, cell-based; settings: filed as agonist
[12] = target: T2, Delta-type opioid receptor; experiment: Agonist activity at human DOR expressed in CHO-K1 cells co-expressing G-alpha15 by calcium mobilization assay relative to control; type: functional, cell-based; settings: filed as agonist
Mu-type opioid receptor [13] = target: T3, Mu-type opioid receptor (Homo sapiens, UniProt P35372); experiment: Agonist activity at human MOR expressed in CHO-K1 cells co-expressing G-alpha15 by calcium mobilization assay relative to control; type: functional, cell-based; settings: filed as agonist
T3 sequence (P35372 whole entry): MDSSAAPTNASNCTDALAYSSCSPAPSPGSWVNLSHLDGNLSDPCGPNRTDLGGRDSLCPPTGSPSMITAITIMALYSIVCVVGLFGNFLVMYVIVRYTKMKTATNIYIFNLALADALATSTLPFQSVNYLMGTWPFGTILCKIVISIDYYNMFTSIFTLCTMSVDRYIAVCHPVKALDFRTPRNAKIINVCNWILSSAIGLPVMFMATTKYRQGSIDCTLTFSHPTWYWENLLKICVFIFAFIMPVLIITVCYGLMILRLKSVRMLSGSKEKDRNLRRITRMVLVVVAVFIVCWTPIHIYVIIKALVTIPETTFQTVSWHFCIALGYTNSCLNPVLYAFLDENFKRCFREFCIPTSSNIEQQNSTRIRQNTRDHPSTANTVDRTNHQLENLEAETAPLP

Mu-type opioid receptor [14] = target: T3, Mu-type opioid receptor; experiment: Agonist activity at human MOR expressed in CHO-K1 cells co-expressing G-alpha15 by calcium mobilization assay; type: functional, cell-based
Mus musculus [15] = experiment: Antinociceptive activity in Kunming mouse model assessed as latency of tail withdrawal at 14157 nmol/kg, sc measured for 30 mins by tail-flick test relative to control; type: functional; settings: 0.5 h
Mus musculus [16] = experiment: Antinociceptive activity in Kunming mouse model assessed as latency of tail withdrawal at 14157 nmol/kg, sc measured for 120 mins by tail-flick test relative to control; type: functional; settings: 2 h
Mus musculus [17] = experiment: Antinociceptive activity in Kunming mouse model assessed as latency of tail withdrawal at 14157 nmol/kg, sc measured for 60 mins by tail-flick test relative to control; type: functional; settings: 1 h
[18] = Stability in mouse plasma assessed as half life at 0.01 mol/L measured for 72 hrs by RP-HPLC analysis; type: ADME, cell-free
Mus musculus [19] = experiment: Antinociceptive activity in Kunming mouse model assessed as latency of tail withdrawal at 14157 nmol/kg, sc measured for 10 mins by tail-flick test relative to control; type: functional
Mus musculus [20] = experiment: Antinociceptive activity in Kunming mouse model assessed as latency of tail withdrawal at 1404 nmol/kg, sc measured for 60 mins by tail-flick test relative to control; type: functional; settings: 1 h
Mus musculus [21] = experiment: Antinociceptive activity in Kunming mouse model assessed as latency of tail withdrawal at 1404 nmol/kg, sc measured for 30 mins by tail-flick test relative to control; type: functional; settings: 0.5 h
Mus musculus [22] = experiment: Antinociceptive activity in Kunming mouse model assessed as latency of tail withdrawal at 1404 nmol/kg, sc measured for 10 mins by tail-flick test relative to control; type: functional
Mus musculus [23] = experiment: Antinociceptive activity in Kunming mouse model assessed as latency of tail withdrawal at 1404 nmol/kg, sc measured for 120 mins by tail-flick test relative to control; type: functional; settings: 2 h
[24] = target: T1, Kappa-type opioid receptor; experiment: Agonist activity at human KOR expressed in CHO-K1 cells co-expressing G-alpha15 upto 100 uM by calcium mobilization assay; type: functional, cell-based
Mus musculus [25] = experiment: Antinociceptive activity in Kunming mouse model assessed as latency of tail withdrawal at 134 nmol/kg, sc measured for 120 mins by tail-flick test relative to control; type: functional; settings: 2 h
Mus musculus [26] = experiment: Antinociceptive activity in Kunming mouse model assessed as latency of tail withdrawal at 134 nmol/kg, sc measured for 30 mins by tail-flick test relative to control; type: functional; settings: 0.5 h
Mus musculus [27] = experiment: Antinociceptive activity in Kunming mouse model assessed as latency of tail withdrawal at 134 nmol/kg, sc measured for 60 mins by tail-flick test relative to control; type: functional; settings: 1 h
Mus musculus [28] = experiment: Antinociceptive activity in Kunming mouse model assessed as latency of tail withdrawal at 134 nmol/kg, sc measured for 10 mins by tail-flick test relative to control; type: functional
[29] = Selectivity ratio of ED50 for inhibition of gastrointestinal motility in fasted Kunming mouse model treated subcutaneously to ED50 for antinociceptive activity in Kunming mouse model administered subcutaneously measured for 5 to 15 mins by acetic acid-induced writhing test; type: toxicity; settings: in vivo, route sc, read-out: Ratio ED50
[30] = Selectivity ratio of ED50 for inhibition of gastrointestinal motility in fasted Kunming mouse model treated subcutaneously to ED50 for antinociceptive activity in Kunming mouse model administered subcutaneously by tail-flick test; type: toxicity; settings: in vivo, route sc, read-out: Ratio ED50
[31] = Toxicity in Kunming mouse model assessed as effect on locomotor co-ordination at 13.8 nmol/kg, sc measured for 10 to 40 mins by rotarod test; type: organism-based; settings: in vivo, time 10-40 min

Structure (SMILES): NC(=O)CNC(=O)[C@@H]1CC(=O)NCCCC[C@@H](NC(=O)[C@@H](N)Cc2ccc(O)cc2)C(=O)NCC(=O)N[C@@H](Cc2ccccc2)C(=O)N1
- MPE (Mus musculus [1]): 92.5%
- MPE (Mus musculus [2]): 43.1%
- MPE (Mus musculus [3]): 73.4%
- MPE (Mus musculus [4]): 74.1%

Structure (SMILES): NC(=O)[C@H]1CCCCN1C(=O)[C@H]1CC(=O)NCCCC[C@@H](NC(=O)[C@@H](N)Cc2ccc(O)cc2)C(=O)NCC(=O)N[C@@H](Cc2ccccc2)C(=O)N1
- MPE (Mus musculus [5]): 59.6%
- MPE (Mus musculus [6]): 86.8%
- MPE (Mus musculus [7]): 26.7%
- MPE (Mus musculus [8]): 61.4%
- EC50 [9]: 2280 nM
- EC50 ([10]; cho-k1): 0.2 nM
- Emax [11]: 68.7%
- Emax [12]: 95.4%
- Emax (Mu-type opioid receptor [13]): 99.6%
- EC50 (Mu-type opioid receptor [14]; cho-k1): 4.9 nM

Structure (SMILES): N[C@@H](Cc1ccc(O)cc1)C(=O)N[C@@H]1CCCCNC(=O)C[C@H](C(=O)N2CCC[C@H]2C(=O)O)NC(=O)[C@H](Cc2ccccc2)NC(=O)CNC1=O
- MPE (Mus musculus [15]): 97.4%
- MPE (Mus musculus [16]): 37.3%
- MPE (Mus musculus [17]): 77%
- EC50 [10]: 3.3 nM
- half-life at 0.01 mol/L [18]: 23 h
- Emax [12]: 109%
- Emax (Mu-type opioid receptor [13]): 94.8%
- EC50 (Mu-type opioid receptor [14]): 3.8 nM
- MPE (Mus musculus [19]): 65%

Structure (SMILES): NC(=O)[C@H]1CCCN1C(=O)[C@@H]1CC(=O)NCCCC[C@@H](NC(=O)[C@@H](N)Cc2ccc(O)cc2)C(=O)NCC(=O)N[C@@H](CC2CCCCC2)C(=O)N1
- MPE (Mus musculus [20]): 74.3%
- MPE (Mus musculus [21]): 92.4%
- MPE (Mus musculus [22]): 61.9%
- MPE (Mus musculus [23]): 36.1%

Structure (SMILES): NC(=O)[C@@H]1CCCN1C(=O)[C@H]1CC(=O)NCCCC[C@@H](NC(=O)[C@@H](N)Cc2ccc(O)cc2)C(=O)N2CCC[C@H]2C(=O)N[C@@H](Cc2ccccc2)C(=O)N1
- Activity [24]: inactive
- MPE (Mus musculus [25]): 46.1%
- MPE (Mus musculus [26]): 88%
- MPE (Mus musculus [27]): 84.5%
- Emax (Mu-type opioid receptor [13]): 83.6%
- MPE (Mus musculus [28]): 57.9%
- EC50 (Mu-type opioid receptor [14]): 2090 nM

Structure (SMILES): NC(=O)[C@H]1CCCN1C(=O)[C@@H]1CC(=O)NCCCC[C@@H](NC(=O)[C@@H](N)Cc2ccc(O)cc2)C(=O)NCC(=O)N[C@@H](Cc2ccc(F)cc2)C(=O)N1
- selectivity ratio [29]: 22
- selectivity ratio [30]: 55
- Activity [31]: Non-Toxic
- EC50 [9]: 92.2 nM
- EC50 ([10]; cho-k1): 0.6 nM
- half-life at 0.01 mol/L [18]: 53.5 h
- EC50 (Mu-type opioid receptor [14]; cho-k1): 0.9 nM
